Data as given in ChEMBL document CHEMBL1782027, “Synthesis and evaluation of heterobivalent tacrine derivatives as potential multi-functional anti-Alzheimer agents” (Eur J Med Chem, 2011).
pIC50: −log10 of the molar value. Activity calls are given as the source filed them. No cut-off for these calls is given here.

Biological target: Acetylcholinesterase (Electrophorus electricus) (UniProt O42275)
Assay: Binding affinity at electric eel AChE catalytic active site assessed as inhibition of acetylthiocholine chloride substrate hydrolysis incubated for 15 mins before substrate addition measured by spectrophotometry based Lineweaver-Burk plot analysis

Sequence of Acetylcholinesterase (Electrophorus electricus) (O42275 24-633 limits assumed): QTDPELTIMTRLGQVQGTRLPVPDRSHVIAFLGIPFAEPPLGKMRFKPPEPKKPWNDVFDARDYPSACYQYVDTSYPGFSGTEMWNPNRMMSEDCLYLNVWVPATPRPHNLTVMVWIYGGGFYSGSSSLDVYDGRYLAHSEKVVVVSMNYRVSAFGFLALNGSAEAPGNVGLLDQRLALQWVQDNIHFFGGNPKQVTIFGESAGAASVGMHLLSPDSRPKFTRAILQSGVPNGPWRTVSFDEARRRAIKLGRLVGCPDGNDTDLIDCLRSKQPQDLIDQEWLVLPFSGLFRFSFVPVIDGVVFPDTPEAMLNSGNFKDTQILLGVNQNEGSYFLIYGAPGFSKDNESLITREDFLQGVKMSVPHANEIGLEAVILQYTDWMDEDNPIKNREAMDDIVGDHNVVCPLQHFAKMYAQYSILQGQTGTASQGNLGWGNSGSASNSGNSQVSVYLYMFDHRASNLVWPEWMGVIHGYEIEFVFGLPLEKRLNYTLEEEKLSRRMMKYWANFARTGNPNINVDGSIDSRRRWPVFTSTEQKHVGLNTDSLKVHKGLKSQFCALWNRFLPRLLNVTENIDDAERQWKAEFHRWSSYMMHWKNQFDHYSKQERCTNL

| Compound | inhibition |
| --- | --- |
| COc1cc(CNCCCCCCCCNc2c3c(nc4ccccc24)CCCC3)ccc1O | Active |

Biological target: Acetylcholinesterase (Electrophorus electricus, UniProt O42275)
Sequence (O42275 whole entry): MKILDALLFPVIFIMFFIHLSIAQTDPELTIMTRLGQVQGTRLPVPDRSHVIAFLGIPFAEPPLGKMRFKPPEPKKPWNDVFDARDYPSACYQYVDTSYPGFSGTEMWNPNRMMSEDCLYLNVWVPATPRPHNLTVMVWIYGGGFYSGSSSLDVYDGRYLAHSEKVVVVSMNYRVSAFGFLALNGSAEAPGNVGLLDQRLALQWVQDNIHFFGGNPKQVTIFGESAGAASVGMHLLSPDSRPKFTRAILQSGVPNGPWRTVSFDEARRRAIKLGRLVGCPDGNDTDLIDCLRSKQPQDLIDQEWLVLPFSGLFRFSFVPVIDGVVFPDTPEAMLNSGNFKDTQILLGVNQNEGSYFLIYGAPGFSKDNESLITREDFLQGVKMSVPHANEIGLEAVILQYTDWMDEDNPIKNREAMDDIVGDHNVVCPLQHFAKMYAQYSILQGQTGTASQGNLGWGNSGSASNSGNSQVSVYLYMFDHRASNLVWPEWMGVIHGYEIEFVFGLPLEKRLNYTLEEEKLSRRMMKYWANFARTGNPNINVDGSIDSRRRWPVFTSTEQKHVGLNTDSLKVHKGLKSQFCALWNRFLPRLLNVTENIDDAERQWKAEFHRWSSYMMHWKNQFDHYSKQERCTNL
Description: Inhibition of electric eel AChE assessed as inhibition of acetylthiocholine chloride substrate hydrolysis incubated for 15 mins before substrate addition measured by spectrophotometry

| Compound | pIC50 |
| --- | --- |
| Oc1cccc(CNCCCCCCCCNc2c3c(nc4ccccc24)CCCC3)c1 | 7.82 |
| c1ccc2c(NCCCCCCCCNCc3ccncc3)c3c(nc2c1)CCCC3 | 8.33 |
| COc1ccc(CNCCCCNc2c3c(nc4ccccc24)CCCC3)cc1OC | 6.44 |
| COc1cc(CNCCCCCCCCNc2c3c(nc4ccccc24)CCCC3)cc(OC)c1O | 8.34 |
| COc1ccc(CNCCCCCCCCNc2c3c(nc4ccccc24)CCCC3)cc1 | 7.82 |
| Oc1ccc(CNCCCCCCNc2c3c(nc4ccccc24)CCCC3)cc1 | 7.59 |
| COc1cc(CNCCCCCCCCNc2c3c(nc4ccccc24)CCCC3)ccc1O | 8.34 |
| COc1ccc(CNCCCCCNc2c3c(nc4ccccc24)CCCC3)cc1OC | 6.98 |
| c1ccc2c(NCCCCCCCCNCc3ccc4c(c3)OCO4)c3c(nc2c1)CCCC3 | 8.21 |
| O=C(NCCCCCCCCNc1c2c(nc3ccccc13)CCCC2)c1ccncc1 | 7.41 |
| COc1cc(CNCCCCCCNc2c3c(nc4ccccc24)CCCC3)ccc1O | 7.36 |
| Oc1ccccc1CNCCCCCCCCNc1c2c(nc3ccccc13)CCCC2 | 7.90 |
| Oc1ccc(CNCCCCCCCCNc2c3c(nc4ccccc24)CCCC3)cc1 | 8.13 |

Biological target: Acetylcholinesterase (Electrophorus electricus) (UniProt O42275)
Assay: Binding affinity at electric eel AChE peripheral anionic site assessed as inhibition of acetylthiocholine chloride substrate hydrolysis incubated for 15 mins before substrate addition measured by spectrophotometry based Lineweaver-Burk plot analysis

| Compound | inhibition |
| --- | --- |
| COc1cc(CNCCCCCCCCNc2c3c(nc4ccccc24)CCCC3)ccc1O | Active |

Biological target: Cholinesterase (Equus caballus, UniProt P81908)
Sequence (P81908 whole entry): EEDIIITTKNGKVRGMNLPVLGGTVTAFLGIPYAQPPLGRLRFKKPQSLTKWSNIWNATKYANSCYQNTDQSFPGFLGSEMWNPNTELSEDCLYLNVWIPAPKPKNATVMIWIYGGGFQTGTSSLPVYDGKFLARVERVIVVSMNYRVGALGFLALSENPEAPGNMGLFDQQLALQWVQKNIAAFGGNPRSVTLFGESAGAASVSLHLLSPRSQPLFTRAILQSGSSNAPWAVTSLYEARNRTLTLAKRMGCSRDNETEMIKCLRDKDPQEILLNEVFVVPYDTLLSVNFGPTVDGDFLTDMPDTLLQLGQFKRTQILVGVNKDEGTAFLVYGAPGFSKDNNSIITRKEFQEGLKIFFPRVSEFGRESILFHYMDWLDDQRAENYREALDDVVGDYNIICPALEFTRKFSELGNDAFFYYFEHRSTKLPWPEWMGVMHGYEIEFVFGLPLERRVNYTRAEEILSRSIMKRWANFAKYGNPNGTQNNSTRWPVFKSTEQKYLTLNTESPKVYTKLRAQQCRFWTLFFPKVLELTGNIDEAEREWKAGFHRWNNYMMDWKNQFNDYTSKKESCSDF
Description: Inhibition of equine serum BuChE assessed as inhibition of butyrylthiocholine chloride substrate hydrolysis incubated for 15 mins before substrate addition measured by spectrophotometry

| Compound | pIC50 |
| --- | --- |
| Oc1cccc(CNCCCCCCCCNc2c3c(nc4ccccc24)CCCC3)c1 | 8.31 |
| c1ccc2c(NCCCCCCCCNCc3ccncc3)c3c(nc2c1)CCCC3 | 8.33 |
| COc1ccc(CNCCCCNc2c3c(nc4ccccc24)CCCC3)cc1OC | 7.43 |
| COc1cc(CNCCCCCCCCNc2c3c(nc4ccccc24)CCCC3)cc(OC)c1O | 8.39 |
| COc1ccc(CNCCCCCCCCNc2c3c(nc4ccccc24)CCCC3)cc1 | 8.32 |
| Oc1ccc(CNCCCCCCNc2c3c(nc4ccccc24)CCCC3)cc1 | 8.12 |
| COc1cc(CNCCCCCCCCNc2c3c(nc4ccccc24)CCCC3)ccc1O | 8.47 |
| COc1ccc(CNCCCCCNc2c3c(nc4ccccc24)CCCC3)cc1OC | 7.61 |
| c1ccc2c(NCCCCCCCCNCc3ccc4c(c3)OCO4)c3c(nc2c1)CCCC3 | 8.46 |
| O=C(NCCCCCCCCNc1c2c(nc3ccccc13)CCCC2)c1ccncc1 | 7.41 |
| COc1cc(CNCCCCCCNc2c3c(nc4ccccc24)CCCC3)ccc1O | 8.03 |
| Oc1ccccc1CNCCCCCCCCNc1c2c(nc3ccccc13)CCCC2 | 7.99 |
| Oc1ccc(CNCCCCCCCCNc2c3c(nc4ccccc24)CCCC3)cc1 | 8.27 |

System: not listed separately
Assay: Inhibition of amyloid beta (1 to 42) self-aggregation at 20 uM after 48 hrs by thioflavin T fluorescent dye assay

| Compound | inhibition |
| --- | --- |
| COc1ccc(CNCCCCNc2c3c(nc4ccccc24)CCCC3)cc1OC | Active |
| COc1ccc(CNCCCCCCNc2c3c(nc4ccccc24)CCCC3)cc1OC | Active |
| COc1cc(CNCCCCCCCCNc2c3c(nc4ccccc24)CCCC3)ccc1O | 71% |
| COc1cc(/C=C/C(=O)CC(=O)/C=C/c2ccc(O)c(OC)c2)ccc1O | 50% |
